biological target: T1, human PAH with the R408W mutation (Homo sapiens, UniProt P00439, R408W); experiment: Cell Based Phenylalanine Flux Assay; conditions: A375 cells expressing human R408W PAH; 24 hrs compound incubation; 13C-Tyrosine by LC-MS; average where tested multiple times; read-out: AC50
T1 construct: expressed in transfected cells
T1 sequence (P00439 1-452 R408W): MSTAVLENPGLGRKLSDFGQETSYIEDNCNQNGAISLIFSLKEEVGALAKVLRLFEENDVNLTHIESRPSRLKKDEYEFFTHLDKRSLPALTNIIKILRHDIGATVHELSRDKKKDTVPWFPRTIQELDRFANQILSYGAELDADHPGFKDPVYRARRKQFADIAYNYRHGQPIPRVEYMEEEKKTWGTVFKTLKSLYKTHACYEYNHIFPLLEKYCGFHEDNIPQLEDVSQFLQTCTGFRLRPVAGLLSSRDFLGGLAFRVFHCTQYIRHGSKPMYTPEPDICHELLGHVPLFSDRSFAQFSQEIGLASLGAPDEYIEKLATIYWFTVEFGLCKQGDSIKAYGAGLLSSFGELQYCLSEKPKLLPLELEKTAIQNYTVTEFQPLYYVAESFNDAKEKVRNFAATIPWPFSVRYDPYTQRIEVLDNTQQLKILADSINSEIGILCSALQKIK

Row | AC50 [nM] | SMILES
1 | 500 to 1000 | O=C(c1cn(-c2ccccn2)nc1Cl)N1CCc2[nH]cnc2[C@H]1c1nc2ccccc2s1 [Example 1907]
2 | 1000 to 5000 | O=C(c1cn(-c2ccccn2)nc1Cl)N1CCc2[nH]cnc2[C@@H]1c1nc2ccccc2s1 [Example 1908, (R)-(4-(benzo[d]thiazol-2-yl)-6,7-dihydro-1H-imidazo[4,5-c]pyridin-5(4H)-yl)(3-chloro-1-(pyridin-2-yl)-1H-pyrazol-4-yl)methanone]
3 | 500 to 1000 | O=C(C1CN(c2ncccc2F)C1)N1CCc2[nH]cnc2[C@H]1c1nc2ccccc2s1 [Example 1909]
4 | > 5000 | O=C(C1CN(c2ncccc2F)C1)N1CCc2[nH]cnc2[C@@H]1c1nc2ccccc2s1 [Example 1910, (R)-(4-(benzo[d]thiazol-2-yl)-6,7-dihydro-1H-imidazo[4,5-c]pyridin-5(4H)-yl)(1-(3-fluoropyridin-2-yl)azetidin-3-yl)methanone]
5 | 500 to 1000 | Cc1nc([C@H](C)O)oc1C(=O)N1CCc2[nH]cnc2[C@H]1c1nc2c(F)cccc2s1 [Example 1911, ((S)-4-(4-fluorobenzo[d]thiazol-2-yl)-6,7-dihydro-1H-imidazo[4,5-c]pyridin-5(4H)-yl)(2-((S)-1-hydroxyethyl)-4-methyloxazol-5-yl)methanone]
6 | > 5000 | Cc1nc([C@H](C)O)oc1C(=O)N1CCc2[nH]cnc2[C@@H]1c1nc2c(F)cccc2s1 [Example 1912, ((R)-4-(4-fluorobenzo[d]thiazol-2-yl)-6,7-dihydro-1H-imidazo[4,5-c]pyridin-5(4H)-yl)(2-((S)-1-hydroxyethyl)-4-methyloxazol-5-yl)methanone]
7 | 500 to 1000 | Cc1nc(C2(O)CCC2)oc1C(=O)N1CCc2[nH]cnc2[C@H]1c1nc2c(F)cccc2s1 [Example 1913, (S)-(4-(4-fluorobenzo[d]thiazol-2-yl)-6,7-dihydro-1H-imidazo[4,5-c]pyridin-5(4H)-yl)(2-(1-hydroxycyclobutyl)-4-methyloxazol-5-yl)methanone]
8 | 1000 to 5000 | Cc1nc(C2(O)CCC2)oc1C(=O)N1CCc2[nH]cnc2[C@@H]1c1nc2c(F)cccc2s1 [Example 1914, (R)-(4-(4-fluorobenzo[d]thiazol-2-yl)-6,7-dihydro-1H-imidazo[4,5-c]pyridin-5(4H)-yl)(2-(1-hydroxycyclobutyl)-4-methyloxazol-5-yl)methanone]
9 | > 5000 | COC(C)(C)c1nc(C)c(C(=O)N2CCc3[nH]cnc3[C@@H]2c2nc3c(F)cccc3s2)o1 [Example 1915, (R)-(4-(4-fluorobenzo[d]thiazol-2-yl)-6,7-dihydro-1H-imidazo[4,5-c]pyridin-5(4H)-yl)(2-(2-methoxypropan-2-yl)-4-methyloxazol-5-yl)methanone]
10 | 1000 to 5000 | COC(C)(C)c1nc(C)c(C(=O)N2CCc3[nH]cnc3[C@H]2c2nc3c(F)cccc3s2)o1 [Example 1916, (S)-(4-(4-fluorobenzo[d]thiazol-2-yl)-6,7-dihydro-1H-imidazo[4,5-c]pyridin-5(4H)-yl)(2-(2-methoxypropan-2-yl)-4-methyloxazol-5-yl)methanone]
11 | 500 to 1000 | Cn1nc(CF)cc1C(=O)N1CCc2[nH]cnc2[C@H]1c1nc2c(F)cccc2s1 [Example 1917, (S)-(4-(4-fluorobenzo[d]thiazol-2-yl)-6,7-dihydro-1H-imidazo[4,5-c]pyridin-5(4H)-yl)(3-(fluoromethyl)-1-methyl-1H-pyrazol-5-yl)methanone]
12 | 1000 to 5000 | Cn1nc(CF)cc1C(=O)N1CCc2[nH]cnc2[C@@H]1c1nc2c(F)cccc2s1 [Example 1918, (R)-(4-(4-fluorobenzo[d]thiazol-2-yl)-6,7-dihydro-1H-imidazo[4,5-c]pyridin-5(4H)-yl)(3-(fluoromethyl)-1-methyl-1H-pyrazol-5-yl)methanone]
13 | 500 to 1000 | Cc1c(C(=O)N2CCc3[nH]cnc3[C@H]2c2nc3c(F)cccc3s2)cnn1CC(F)(F)F [Example 1919, (S)-(4-(4-fluorobenzo[d]thiazol-2-yl)-6,7-dihydro-1H-imidazo[4,5-c]pyridin-5(4H)-yl)(5-methyl-1-(2,2,2-trifluoroethyl)-1H-pyrazol-4-yl)methanone]
14 | > 5000 | Cc1c(C(=O)N2CCc3[nH]cnc3[C@@H]2c2nc3c(F)cccc3s2)cnn1CC(F)(F)F [Example 1920, (R)-(4-(4-fluorobenzo[d]thiazol-2-yl)-6,7-dihydro-1H-imidazo[4,5-c]pyridin-5(4H)-yl)(5-methyl-1-(2,2,2-trifluoroethyl)-1H-pyrazol-4-yl)methanone]
15 | 500 to 1000 | O=C(c1nnc(-c2cn[nH]c2)o1)N1CCc2[nH]cnc2[C@H]1c1nc2ccccc2s1 [Example 1921]
16 | 1000 to 5000 | O=C(c1nnc(-c2cn[nH]c2)o1)N1CCc2[nH]cnc2[C@@H]1c1nc2ccccc2s1 [Example 1922, (R)-(5-(1H-pyrazol-4-yl)-1,3,4-oxadiazol-2-yl)(4-(benzo[d]thiazol-2-yl)-6,7-dihydro-1H-imidazo[4,5-c]pyridin-5(4H)-yl)methanone]

Row | AC50 [nM] | SMILES
17 | < 500 | Cn1nc(Cl)cc1C(=O)N1CCc2[nH]cnc2[C@H]1c1nc2ccccc2s1 [Example 1923]
18 | 1000 to 5000 | Cn1nc(Cl)cc1C(=O)N1CCc2[nH]cnc2[C@@H]1c1nc2ccccc2s1 [Example 1924, (R)-(4-(benzo[d]thiazol-2-yl)-6,7-dihydro-1H-imidazo[4,5-c]pyridin-5(4H)-yl)(3-chloro-1-methyl-1H-pyrazol-5-yl)methanone]
19 | < 500 | Cc1nn(C)cc1-c1nnc(C(=O)N2CCc3[nH]cnc3[C@H]2c2nc3ccccc3s2)o1 [Example 1925]
20 | 1000 to 5000 | Cc1nn(C)cc1-c1nnc(C(=O)N2CCc3[nH]cnc3[C@@H]2c2nc3ccccc3s2)o1 [Example 1926, (R)-(4-(benzo[d]thiazol-2-yl)-6,7-dihydro-1H-imidazo[4,5-c]pyridin-5(4H)-yl)(5-(1,3-dimethyl-1H-pyrazol-4-yl)-1,3,4-oxadiazol-2-yl)methanone]
21 | < 500 | Cn1cc(-c2nnc(C(=O)N3CCc4[nH]cnc4[C@H]3c3nc4c(F)cccc4s3)o2)c(C(F)(F)F)n1 [Example 1927, (S)-(4-(4-fluorobenzo[d]thiazol-2-yl)-6,7-dihydro-1H-imidazo[4,5-c]pyridin-5(4H)-yl)(5-(1-methyl-3-(trifluoromethyl)-1H-pyrazol-4-yl)-1,3,4-oxadiazol-2-yl)methanone]
22 | 1000 to 5000 | Cn1cc(-c2nnc(C(=O)N3CCc4[nH]cnc4[C@@H]3c3nc4c(F)cccc4s3)o2)c(C(F)(F)F)n1 [Example 1928, (R)-(4-(4-fluorobenzo[d]thiazol-2-yl)-6,7-dihydro-1H-imidazo[4,5-c]pyridin-5(4H)-yl)(5-(1-methyl-3-(trifluoromethyl)-1H-pyrazol-4-yl)-1,3,4-oxadiazol-2-yl)methanone]
23 | 500 to 1000 | Cc1nc([C@@H](C)O)oc1C(=O)N1CCc2[nH]cnc2[C@H]1c1nc2c(F)cccc2s1 [Example 1929, ((S)-4-(4-fluorobenzo[d]thiazol-2-yl)-6,7-dihydro-1H-imidazo[4,5-c]pyridin-5(4H)-yl)(2-((R)-1-hydroxyethyl)-4-methyloxazol-5-yl)methanone]
24 | 1000 to 5000 | Cc1nc([C@@H](C)O)oc1C(=O)N1CCc2[nH]cnc2[C@@H]1c1nc2c(F)cccc2s1 [Example 1930, ((R)-4-(4-fluorobenzo[d]thiazol-2-yl)-6,7-dihydro-1H-imidazo[4,5-c]pyridin-5(4H)-yl)(2-((R)-1-hydroxyethyl)-4-methyloxazol-5-yl)methanone]
25 | 500 to 1000 | CC(C)(C)n1ncc(C(=O)N2CCc3[nH]cnc3[C@H]2c2nc3c(F)cccc3s2)c1Cl [Example 1931]
26 | 1000 to 5000 | CC(C)(C)n1ncc(C(=O)N2CCc3[nH]cnc3[C@@H]2c2nc3c(F)cccc3s2)c1Cl [Example 1932, (R)-(1-(tert-butyl)-5-chloro-1H-pyrazol-4-yl)(4-(4-fluorobenzo[d]thiazol-2-yl)-6,7-dihydro-1H-imidazo[4,5-c]pyridin-5(4H)-yl)methanone]
27 | 1000 to 5000 | Cc1c(C(=O)N2CCc3[nH]cnc3[C@H]2c2nc3c(F)cccc3s2)cnn1-c1ccccn1 [Example 1933, (S)-(4-(4-fluorobenzo[d]thiazol-2-yl)-6,7-dihydro-1H-imidazo[4,5-c]pyridin-5(4H)-yl)(5-methyl-1-(pyridin-2-yl)-1H-pyrazol-4-yl)methanone]
28 | > 5000 | Cc1c(C(=O)N2CCc3[nH]cnc3[C@@H]2c2nc3c(F)cccc3s2)cnn1-c1ccccn1 [Example 1934, (R)-(4-(4-fluorobenzo[d]thiazol-2-yl)-6,7-dihydro-1H-imidazo[4,5-c]pyridin-5(4H)-yl)(5-methyl-1-(pyridin-2-yl)-1H-pyrazol-4-yl)methanone]
29 | < 500 | CC(C)(O)c1nc(Cl)c(C(=O)N2CCc3[nH]cnc3[C@H]2c2nc3c(F)cccc3s2)o1 [Example 1935, (S)-(4-chloro-2-(2-hydroxypropan-2-yl)oxazol-5-yl)(4-(4-fluorobenzo[d]thiazol-2-yl)-6,7-dihydro-1H-imidazo[4,5-c]pyridin-5(4H)-yl)methanone]
30 | 1000 to 5000 | CC(C)(O)c1nc(Cl)c(C(=O)N2CCc3[nH]cnc3[C@@H]2c2nc3c(F)cccc3s2)o1 [Example 1936, (R)-(4-chloro-2-(2-hydroxypropan-2-yl)oxazol-5-yl)(4-(4-fluorobenzo[d]thiazol-2-yl)-6,7-dihydro-1H-imidazo[4,5-c]pyridin-5(4H)-yl)methanone]
31 | 500 to 1000 | Cn1nc(Cl)nc1C(=O)N1CCc2[nH]cnc2[C@H]1c1nc2ccccc2s1 [Example 1937]

Reference: patent US20250171438A1 (Agios Pharmaceuticals, Inc., priority 2022, published 2025)
